# Assay results taken from US11414465B2, “Plasma membrane intrinsic aquaporin for absorbing and transporting neonicotinoid insecticides, and coding gene and use therefor” (JIANGSU ACADEMY OF ARGRICULTURAL SCIENCES, priority 2020, dated 2022).
# Columns and labels:
# Chinese cabbage plants = details: 2 mg/L compound in Hoagland nutrient solution, mercuric chloride or glycerol added, 48 h
# [1] = tested on: Saccharomyces cerevisiae INVSc1 (pYES2-BraPIP1;1); assay: Growth experiment of recombinant yeast strains under thiamethoxam stress; assay type: cell-based; details: 10-1600 mg/L thiamethoxam, stress at 30° C. for 72 h, compared with wild strain (pYES2)
# Source text: (§1) The BraPIP1;1 gene cloned in Example 1 was constructed into the Saccharomyces cerevisiae overexpression vector pYES2 (purchased from Clotech) referring to (He Lin, Jiang Lili, Wang Yucheng, Analysis of the stress tolerance of Tamarix thioredoxin peroxidase (ThPrx1) gene transformed into yeast, Journal of Northeast Forestry University, 2011, Vol. 39. No. 4, 101-104), and the constructed recombinant plasmid was named pYES2-BraPIP1;1. The pYES2-BraPIP1;1 and an empty vector pYES2 were transformed into Saccharomyces cerevisiae INVSc1 by lithium acetate precipitation. The recombinant yeasts were named INVSc1 (pYES2-BraPIP1;1) and INVSc1 (pYES2), respectively.
# (§2) Induction of recombinant strains: Single colonies of the control yeast INvsc1 (pYES2) and the recombinant yeast INvscl (pYES2-BraPIP1;1) were picked, inoculated in an SC-U liquid medium (with glucose of a final concentration of 2%) respectively, and incubated at 30° C. for 24 h on a shaker. The OD600 value is measured, and the amount of bacterial solution required is calculated such that the OD600 of bacteria in 10 ml of induction medium (SC-U+2% galactose) is 0.4. Induce expression was carried out at 30° C. for 24 h. The OD600 value was measured again, and the amount of bacterial solution required was calculated. […]
# BraPIP1;1 gene = assay: Response of BraPIP1;1 gene expression to thiamethoxam (quantitative RT-PCR); assay type: in vivo, Chinese cabbage; details: 10 mg/L thiamethoxam, p<0.001
# Experimental: Seedlings of Chinese cabbage with the same growth condition were put in a Hoagland's nutrient solution containing 10 mg/L thiamethoxam (the Hoagland's nutrient solution was purchased from Beijing Coolaber Technology Co., Ltd.), and treated in the Hoagland's nutrient solution for 6 and 24 hours (treatment group).
# At the same time, a Hoagland's nutrient solution without thiamethoxam was used as the control group.
# Treated root and aboveground tissue RNA of two groups was extracted respectively, the 1st strand cDNA was obtained by reverse transcription as a template, specific expression primers were designed based on the cDNA sequence of BraPIP1;1, the Chinese cabbage Tublin was used as an internal reference, and the expression of the gene transcription level was detected by quantitative RT-PCR.
# The quantification instrument is 7500 Real Time PCR System (Applied Biosystem), and a qPCRT system was configured according to the instructions of a kit 2×TSINGKE Master qPCR Mix (Tsingke Biotechnology Co., Ltd.). The PCR program is: pre-denaturation at 95° C. for 10 min, at 95° C. for 15 s, and at 60° C. for 20 s, for 40 cycles.
# [2] = tested on: Saccharomyces cerevisiae INVSc1 (pYES2); assay: Thiamethoxam content experiment, control yeast strain; assay type: cell-based; details: 30° C., 6 h
# Source text: as §1, §2
# [3] = tested on: BraPIP1;1 overexpression Arabidopsis thaliana (BraPIP1;1#4, BraPIP1;1#6); assay: Main root length of BraPIP1;1 transgenic Arabidopsis thaliana under thiamethoxam stress; assay type: in vivo; details: 1/2MS media with 10 and 50 mg/L thiamethoxam, 20 days, compared with wild type Col-0
# Source text: (§3) The BraPIP1;1 gene cloned in Example 1 was constructed into the plant binary overexpression vector pCAMBIA2301 (purchased from Clotech). By the Agrobacterium tumefaciens-mediated method (Valvekens, D., van Montagu, M., and Lijsebettens, M. V. (1988). Agrobacterium tumefaciens-mediated transformation of Arabidopsis thaliana root explants by using kanamycin selection. Proc. Natl. Acad. Sci. USA 85, 5536-5540.), the inflorescence of wild-type Arabidopsis thaliana Col-0 (purchased from ATCC, USA) was infected with the constructed overexpression vector. Through screening (resistance pure line seedlings were screened on a ½MS plate containing 50 μg/mL kanamycin), BraPIP1;1 overexpression Arabidopsis thaliana pure line materials BraPIP1;1#4 and BraPIP1;1#6 were identified and obtained.
# The pure line seeds of the BraPIP1;1#4 and BraPIP1;1#6 obtained in the previous transgenic experiment and a wild-type Col-0 material (WT) were germinated on a ½MS medium respectively, and then transferred to ½MS media (Qingdao Hopebio Co., Ltd., Item No. HB8469-12, PH=5.6) containing 10 and 50 mg/L thiamethoxam respectively. After 20 days, the growth of the seedlings was observed and the main root length was measured.
# [4] = tested on: Saccharomyces cerevisiae INVSc1 (pYES2-BraPIP1;1); assay: Thiamethoxam content experiment, recombinant yeast strain; assay type: cell-based; details: 30° C., 6 h
# Source text: as §1, §2
# [5] = tested on: BraPIP1;1 overexpression Arabidopsis thaliana; assay: Thiamethoxam content of BraPIP1;1 transgenic Arabidopsis thaliana grown in soil; assay type: in vivo; details: soil containing 10 mg/L thiamethoxam, 20 days, compared with wild plant
# Source text: as §3
# In addition, germinated seedlings of the same size were transplanted into soil containing 10 mg/L thiamethoxam, and after 20 days of culture, the root and aboveground samples of the transgenic Arabidopsis thaliana and the control were harvested respectively, washed with deionized water, and weighed.
SMILES,content of the compound in the plants after the water channel inhibitors were added (Chinese cabbage plants),growth of transgenic strain (pYES2-BraPIP1;1) with thiamethoxam [1],expression abundance of BraPIP1;1 in the aboveground parts vs control (BraPIP1;1 gene; 6 hours),expression abundance of BraPIP1;1 in the roots vs control (BraPIP1;1 gene; 6 hours),expression abundance of BraPIP1;1 in the aboveground parts vs control (BraPIP1;1 gene; 24 hours),thiamethoxam content of the control strain ([2]; 10 mg/L thiamethoxam),thiamethoxam content of the control strain (pYES2) ([2]; 100 mg/L thiamethoxam),main root length of the transgenic strain [3],thiamethoxam content of the recombinant strain ([4]; 10 mg/L thiamethoxam),thiamethoxam content of the recombinant strain (pYES2-BraPIP1;1) ([4]; 100 mg/L thiamethoxam),thiamethoxam content of the aboveground parts of the transgenic plant [5],thiamethoxam content of the roots of the transgenic plant [5]
CN1CCCC1c1cccnc1 (stereo not drawn) [nicotine],did not change significantly,–,–,–,–,–,–,–,–,–,–,–
CN1COCN(Cc2cnc(Cl)s2)/C1=N\[N+](=O)[O-] [thiamethoxam],–,grows weaker than the wild strain,significantly increased,significantly increased,significantly increased,0.0038 ng/OD,0.011 ng/OD,shorter than that of the wild type,0.0078 ng/OD,0.021 ng/OD,higher than that of the wild plant,higher than that of the wild plant
